Results: US20260116920A1, “HUMAN TRANSFERRIN RECEPTOR BINDING PEPTIDE” (PEPTIDREAM INC., priority 2021, published 2026)
Starred links: 1 amine or outer side, 2 acyl side, 3 side chain; linkers in the order of their positions; H or OH if unused. Positions of bridges follow the written chain, without caps; N, C: chain ends. Non-standard residues stand in square brackets, D forms with d. Residues, ends and D or L forms follow the SMILES beside them. Groups on a side chain read outwards from the residue. *: point of attachment. Trp(1-CH2COOH) = N[C@@H](Cc1cn(CC(=O)O)c2ccccc12)C(=O)O; Meglumine = CN(C[C@H](O)[C@@H](O)[C@H](O)[C@H](O)CO)*; Phe(3-COOH) = N[C@@H](Cc1cccc(C(=O)O)c1)C(=O)O; NH(CH2CH2O)8Me = COCCOCCOCCOCCOCCOCCOCCOCCN*; NMePhe(3-Cl) = CN[C@@H](Cc1cccc(Cl)c1)C(=O)O; 3Pal(6-NH2) = Nc1ccc(C[C@H](N)C(=O)O)cn1; Lys(N3) = [N-]=[N+]=NCCCC[C@H](N)C(=O)O; NMe4Pal = CN[C@@H](Cc1ccncc1)C(=O)O; NMeY = CN[C@@H](Cc1ccc(O)cc1)C(=O)O; 3Pal = N[C@@H](Cc1cccnc1)C(=O)O; 4Pal = N[C@@H](Cc1ccncc1)C(=O)O; PEG4 = NCCOCCOCCOCCOCCC(=O)O; Carboxymethyl = O=C(O)C*; CO = O=C([*:1])[*:2]

What follows are molecules tested against T1, human transferrin receptor (hTfR) (Homo sapiens, UniProt P02786) (assay: Evaluation of molecular interaction between transferrin receptor (hTfR) and peptide using surface plasmon resonance (SPR)). Details: surface plasmon resonance, binding to hTfR; KD class symbol; read-out: SPR (KD value).
T1 construct: made in house
T1 sequence (P02786 89-760 limits assumed): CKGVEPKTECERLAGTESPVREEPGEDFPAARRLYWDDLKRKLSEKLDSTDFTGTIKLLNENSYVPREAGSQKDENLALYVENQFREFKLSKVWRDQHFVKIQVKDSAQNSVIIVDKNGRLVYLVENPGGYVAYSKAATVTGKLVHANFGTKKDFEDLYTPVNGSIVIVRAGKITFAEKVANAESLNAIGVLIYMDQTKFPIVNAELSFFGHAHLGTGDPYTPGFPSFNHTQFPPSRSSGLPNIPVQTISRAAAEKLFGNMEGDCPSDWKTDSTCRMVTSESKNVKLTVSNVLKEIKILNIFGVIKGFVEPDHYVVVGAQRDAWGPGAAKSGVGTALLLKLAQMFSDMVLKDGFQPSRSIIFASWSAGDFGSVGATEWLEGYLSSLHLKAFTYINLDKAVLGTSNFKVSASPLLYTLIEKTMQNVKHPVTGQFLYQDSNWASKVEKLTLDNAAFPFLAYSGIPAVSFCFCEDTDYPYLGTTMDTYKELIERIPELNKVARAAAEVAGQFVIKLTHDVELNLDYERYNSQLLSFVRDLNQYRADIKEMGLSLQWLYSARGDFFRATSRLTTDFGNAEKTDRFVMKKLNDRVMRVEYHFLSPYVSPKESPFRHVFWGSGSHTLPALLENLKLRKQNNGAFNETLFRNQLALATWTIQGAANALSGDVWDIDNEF
Assay type: binding
How it was run: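 Using a Ni-NTA surface bearing covalently coupled hTfR dimer, peptides were tested at five concentrations from 5 to 100 nM. Running buffer was 10 mM HEPES pH 8.0, 150 mM NaCl, 0.05% Tween 20, 0.1% BSA, 1.0% DMSO; single-cycle sensorgrams were least-squares fitted for KD.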

Kd, 0.001 to 0.1 µM:
CC[C@H](C)[C@@H]1NC(=O)[C@H](Cc2ccc(OC)cc2)NC(=O)[C@H](Cc2ccc(N)nc2)NC(=O)[C@H](CC(N)=O)NC(=O)[C@H](Cc2c[nH]c3ccccc23)NC(=O)[C@H](C(C)C)NC(=O)[C@H](Cc2ccncc2)N(C)C(=O)[C@H](C(C)C)NC(=O)[C@H](C)NC(=O)CSC[C@@H](C(=O)NCCOCCOCCOCCOCCC(N)=O)NC(=O)[C@H](Cc2ccc(O)cc2)N(C)C(=O)[C@H](Cc2ccccc2)NC(=O)[C@H](CCCNC(=N)N)NC(=O)[C@H](CCCNC(=N)N)NC(=O)[C@H]([C@@H](C)CC)NC1=O [compound 64] ({CH2CO}-AV[NMe4Pal]VWN[3Pal(6-NH2)]Y(Me)IIRRF[NMeY]C[PEG4]-NH2; thioether N-15), CC[C@H](C)[C@@H]1NC(=O)[C@H](Cc2ccc(OC)cc2)NC(=O)[C@H](Cc2ccc(O)cc2)NC(=O)[C@H](CC(N)=O)NC(=O)[C@H](Cc2c[nH]c3ncccc23)NC(=O)[C@H](C(C)C)NC(=O)[C@H](Cc2cccc(Cl)c2)N(C)C(=O)[C@H](C(C)C)NC(=O)[C@H](C)NC(=O)CSC[C@@H](C(=O)NCCOCCOCCOCCOCCC(N)=O)NC(=O)[C@H](Cc2ccc(O)cc2)N(C)C(=O)[C@H](Cc2ccncc2)NC(=O)[C@H](CCCNC(=N)N)NC(=O)[C@H](CCCNC(=N)N)NC(=O)[C@H]([C@@H](C)CC)NC1=O [compound 65], CC[C@H](C)[C@@H]1NC(=O)[C@H](Cc2ccc(OC)cc2)NC(=O)[C@H](Cc2ccc(O)cc2)NC(=O)[C@H](CC(N)=O)NC(=O)[C@H](Cc2c[nH]c3ccccc23)NC(=O)[C@H](C(C)C)NC(=O)[C@H](Cc2cccc(Cl)c2)N(C)C(=O)[C@H](C(C)C)NC(=O)[C@H](C)NC(=O)CSC[C@@H](C(=O)NCCOCCOCCOCCOCCC(N)=O)NC(=O)[C@H](Cc2cccnc2)N(C)C(=O)[C@H](Cc2ccncc2)NC(=O)[C@H](CCCNC(=N)N)NC(=O)[C@H](CCCNC(=N)N)NC(=O)[C@H]([C@@H](C)CC)NC1=O [compound 66], CC[C@H](C)[C@@H]1NC(=O)[C@H](Cc2cccnc2)NC(=O)[C@H](Cc2ccc(O)cc2)NC(=O)[C@H](CC(N)=O)NC(=O)[C@H](Cc2c[nH]c3ccccc23)NC(=O)[C@H](C(C)C)NC(=O)[C@H](Cc2cccc(Cl)c2)N(C)C(=O)[C@H](C(C)C)NC(=O)[C@H](C)NC(=O)CSC[C@@H](C(=O)NCCOCCOCCOCCOCCC(N)=O)NC(=O)[C@H](Cc2ccc(O)cc2)N(C)C(=O)[C@H](Cc2ccncc2)NC(=O)[C@H](CCC(N)=O)NC(=O)[C@H](CCC(N)=O)NC(=O)[C@H]([C@@H](C)CC)NC1=O [compound 67] ({CH2CO}-AV[NMePhe(3-Cl)]VWNY[3Pal]IIQQ[4Pal][NMeY]C[PEG4]-NH2; thioether N-15), CC[C@H](C)[C@@H]1NC(=O)[C@H](Cc2cccnc2)NC(=O)[C@H](Cc2ccc(O)cc2)NC(=O)[C@H](CC(N)=O)NC(=O)[C@H](Cc2c[nH]c3ccccc23)NC(=O)[C@H](C(C)C)NC(=O)[C@H](Cc2cccc(Cl)c2)N(C)C(=O)[C@H](C(C)C)NC(=O)[C@H](C)NC(=O)CSC[C@@H](C(=O)NCC(=O)N[C@H](CCCCNC(=O)N(C)C[C@H](O)[C@@H](O)[C@H](O)[C@H](O)CO)C(=O)N[C@H](CCCCNC(=O)N(C)C[C@H](O)[C@@H](O)[C@H](O)[C@H](O)CO)C(=O)N[C@H](CCCCNC(=O)N(C)C[C@H](O)[C@@H](O)[C@H](O)[C@H](O)CO)C(=O)N[C@H](CO)C(=O)N[C@H](CO)C(=O)N[C@@H](CCCCN=[N+]=[N-])C(N)=O)NC(=O)[C@H](Cc2ccc(O)cc2)N(C)C(=O)[C@H](Cc2ccncc2)NC(=O)[C@H](CCCNC(=N)N)NC(=O)[C@H](CCCNC(=N)N)NC(=O)[C@H]([C@@H](C)CC)NC1=O [compound 68] ({CH2CO}-AV[NMePhe(3-Cl)]VWNY[3Pal]IIRR[4Pal][NMeY]CG[dK]([CO-Meglumine])[dK]([CO-Meglumine])[dK]([CO-Meglumine])[dS][dS][Lys(N3)]-NH2; thioether N-15), CC[C@H](C)[C@@H]1NC(=O)[C@H](Cc2cccnc2)NC(=O)[C@H](Cc2ccc(O)cc2)NC(=O)[C@H](CC(N)=O)NC(=O)[C@H](Cc2c[nH]c3ccccc23)NC(=O)[C@H](C(C)C)NC(=O)[C@H](Cc2cccc(Cl)c2)N(C)C(=O)[C@H](C(C)C)NC(=O)[C@H](C)NC(=O)CSC[C@@H](C(=O)NCC(=O)N[C@H](CCC(=O)O)C(=O)N[C@H](CCC(=O)O)C(=O)N[C@H](CCC(=O)O)C(=O)N[C@H](CO)C(=O)N[C@H](CO)C(=O)N[C@@H](CCCCN=[N+]=[N-])C(N)=O)NC(=O)[C@H](Cc2ccc(O)cc2)N(C)C(=O)[C@H](Cc2ccncc2)NC(=O)[C@H](CCCNC(=N)N)NC(=O)[C@H](CCCNC(=N)N)NC(=O)[C@H]([C@@H](C)CC)NC1=O [compound 69], CC[C@H](C)[C@@H]1NC(=O)[C@H](Cc2ccc(OC)cc2)NC(=O)[C@H](Cc2ccc(O)cc2)NC(=O)[C@H](CC(N)=O)NC(=O)[C@H](Cc2cn(CC(=O)O)c3ccccc23)NC(=O)[C@H](C(C)C)NC(=O)[C@H](Cc2cccc(Cl)c2)N(C)C(=O)[C@H](C(C)C)NC(=O)[C@H](C)NC(=O)CSC[C@@H](C(=O)NCCOCCOCCOCCOCCC(N)=O)NC(=O)[C@H](Cc2ccc(O)cc2)N(C)C(=O)[C@H](Cc2ccccc2)NC(=O)[C@H](CCC(=O)NCCOCCOCCOCCOCCOCCOCCOCCOC)NC(=O)[C@H](CCCNC(=N)N)NC(=O)[C@H]([C@@H](C)CC)NC1=O [compound 70], CC[C@H](C)[C@@H]1NC(=O)[C@H](Cc2ccc(OCC(=O)O)cc2)NC(=O)[C@H](Cc2ccc(N)nc2)NC(=O)[C@H](CC(N)=O)NC(=O)[C@H](Cc2cn(CC(=O)O)c3ccccc23)NC(=O)[C@H](C(C)C)NC(=O)[C@H](Cc2cccc(Cl)c2)N(C)C(=O)[C@H](C(C)C)NC(=O)[C@H](C)NC(=O)CSC[C@@H](C(=O)NCCOCCOCCOCCOCCC(N)=O)NC(=O)[C@H](Cc2ccc(O)cc2)N(C)C(=O)[C@H](Cc2ccccc2)NC(=O)[C@H](CCCNC(=N)N)NC(=O)[C@H](CCCNC(=N)N)NC(=O)[C@H]([C@@H](C)CC)NC1=O [compound 71] ({CH2CO}-AV[NMePhe(3-Cl)]V[Trp(1-CH2COOH)]N[3Pal(6-NH2)]Y(Carboxymethyl)IIRRF[NMeY]C[PEG4]-NH2; thioether N-15), CC[C@H](C)[C@@H]1NC(=O)[C@H](Cc2ccc(OC)cc2)NC(=O)[C@H](Cc2ccc(N)nc2)NC(=O)[C@H](CC(N)=O)NC(=O)[C@H](Cc2cn(CC(=O)O)c3ccccc23)NC(=O)[C@H](C(C)C)NC(=O)[C@H](Cc2cccc(Cl)c2)N(C)C(=O)[C@H](C(C)C)NC(=O)[C@H](C)NC(=O)CSC[C@@H](C(=O)NCCOCCOCCOCCOCCC(N)=O)NC(=O)[C@H](Cc2ccc(O)cc2)N(C)C(=O)[C@H](Cc2cccc(C(=O)O)c2)NC(=O)[C@H](CCCNC(=N)N)NC(=O)[C@H](CCCNC(=N)N)NC(=O)[C@H]([C@@H](C)CC)NC1=O [compound 72] ({CH2CO}-AV[NMePhe(3-Cl)]V[Trp(1-CH2COOH)]N[3Pal(6-NH2)]Y(Me)IIRR[Phe(3-COOH)][NMeY]C[PEG4]-NH2; thioether N-15), CC[C@H](C)[C@@H]1NC(=O)[C@H](Cc2cccnc2)NC(=O)[C@H](Cc2ccc(O)cc2)NC(=O)[C@H](CC(N)=O)NC(=O)[C@H](Cc2cn(CC(=O)O)c3ccccc23)NC(=O)[C@H](C(C)C)NC(=O)[C@H](Cc2cccc(Cl)c2)N(C)C(=O)[C@H](C(C)C)NC(=O)[C@H](C)NC(=O)CSC[C@@H](C(=O)NCCOCCOCCOCCOCCC(N)=O)NC(=O)[C@H](Cc2ccc(O)cc2)N(C)C(=O)[C@H](Cc2ccccc2)NC(=O)[C@H](CCC(=O)NCCOCCOCCOCCOCCOCCOCCOCCOC)NC(=O)[C@H](CCCNC(=N)N)NC(=O)[C@H]([C@@H](C)CC)NC1=O [compound 73] ({CH2CO}-AV[NMePhe(3-Cl)]V[Trp(1-CH2COOH)]NY[3Pal]IIRE(NH(CH2CH2O)8Me)F[NMeY]C[PEG4]-NH2; thioether N-15), CC[C@H](C)[C@@H]1NC(=O)[C@H](Cc2cccnc2)NC(=O)[C@H](Cc2ccc(O)cc2)NC(=O)[C@H](CC(N)=O)NC(=O)[C@H](Cc2cn(CC(=O)O)c3ccccc23)NC(=O)[C@H](C(C)C)NC(=O)[C@H](Cc2cccc(Cl)c2)N(C)C(=O)[C@H](C(C)C)NC(=O)[C@H](C)NC(=O)CSC[C@@H](C(=O)NCCOCCOCCOCCOCCC(N)=O)NC(=O)[C@H](Cc2ccc(O)cc2)N(C)C(=O)[C@H](Cc2cccc(C(=O)O)c2)NC(=O)[C@H](CCCNC(=N)N)NC(=O)[C@H](CCCNC(=N)N)NC(=O)[C@H]([C@@H](C)CC)NC1=O [compound 74] ({CH2CO}-AV[NMePhe(3-Cl)]V[Trp(1-CH2COOH)]NY[3Pal]IIRR[Phe(3-COOH)][NMeY]C[PEG4]-NH2; thioether N-15), CC[C@H](C)[C@@H]1NC(=O)[C@H](Cc2ccc(OCC(=O)O)cc2)NC(=O)[C@H](Cc2ccc(O)cc2)NC(=O)[C@H](CC(N)=O)NC(=O)[C@H](Cc2cn(CC(=O)O)c3ccccc23)NC(=O)[C@H](C(C)C)NC(=O)[C@H](Cc2cccc(Cl)c2)N(C)C(=O)[C@H](C(C)C)NC(=O)[C@H](C)NC(=O)CSC[C@@H](C(=O)NCCOCCOCCOCCOCCC(N)=O)NC(=O)[C@H](Cc2ccc(O)cc2)N(C)C(=O)[C@H](Cc2cccc(C(=O)O)c2)NC(=O)[C@H](CCCNC(=N)N)NC(=O)[C@H](CCCNC(=N)N)NC(=O)[C@H]([C@@H](C)CC)NC1=O [compound 75], CC[C@H](C)[C@@H]1NC(=O)[C@H](Cc2ccc(OCC(=O)O)cc2)NC(=O)[C@H](Cc2ccc(O)cc2)NC(=O)[C@H](CC(N)=O)NC(=O)[C@H](Cc2cn(CC(=O)O)c3ccccc23)NC(=O)[C@H](C(C)C)NC(=O)[C@H](Cc2cccc(Cl)c2)N(C)C(=O)[C@H](C(C)C)NC(=O)[C@H](C)NC(=O)CSC[C@@H](C(=O)NCCOCCOCCOCCOCCC(N)=O)NC(=O)[C@H](Cc2ccc(O)cc2)N(C)C(=O)[C@H](Cc2ccncc2)NC(=O)[C@H](CCCNC(=N)N)NC(=O)[C@H](CCCNC(=N)N)NC(=O)[C@H]([C@@H](C)CC)NC1=O [compound 76]
